Experimental data from PubChem BioAssay (NCI).
Where “and” joins values, the source holds several entries; their conditions need not be identical. Equal entries are not always repeated.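 Briefly, cells in 96-well plates were exposed to five compound concentrations for 48 h, and endpoints were estimated by linear interpolation. At the GI50, growth is halved. TGI marks complete inhibition of growth.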 *1 amine or outer side, *2 acyl side, *3 side chain or, on linkers, in order; H or OH if unused. Where a SMILES comes first, the peptide text is derived from it. Bridges are numbered along the chain shown (N, C = ends). Roman numbers before positions name the chains, in order. [ ]: non-standard residue; d: D form. Actinocin(9to1) = Cc1c2oc3c(C)ccc(C(=O)[*:1])c3nc-2c(C(=O)[*:2])c(N)c1=O; NMeT = CN[CH](C(=O)O)[CH](C)O; Sar = CNCC(=O)O

Legend:
Test in all cases: growth of human tumour cells (NCI), 48 h
[1] = test system: MDA-N
[2] = test system: SNB-78 CNS
[3] = test system: HOP-18 NSCLC
[4] = test system: DMS 114 small cell lung
[5] = test system: M19-MEL melanoma
[6] = test system: RXF-631 renal
[7] = test system: KM20L2 colon
[8] = test system: XF 498 CNS
[9] = test system: LXFL 529 NSCLC

| SMILES | TGI [1] | TGI [2] | TGI [3] | TGI [4] | TGI [5] | TGI [6] | TGI [7] | TGI [8] | TGI [9] | GI50 [7] | GI50 [8] | GI50 [9] | GI50 [3] | GI50 [5] |
| --- | --- | --- | --- | --- | --- | --- | --- | --- | --- | --- | --- | --- | --- | --- |
| Cc1cc(=O)oc2c(C)c(O)ccc12 | > 100 µM |  |  |  |  |  |  |  |  |  |  |  |  |  |
| C=C(C#N)C1OCC2OC(C)(C)OC21 (centres undefined) |  | 43 µM | 81.7 µM | 57.2 µM | 61.8 µM | 35.8 µM |  |  |  |  |  |  |  |  |
| COc1ccc(/C(=N\NC(=O)C(=O)NN)C(c2ccc(OC)cc2)C2(O)C(=O)Nc3ccccc32)cc1 (centres undefined) |  | > 100 µM |  | > 100 µM | > 100 µM | > 100 µM | > 100 µM | > 100 µM | > 100 µM |  |  |  |  |  |
| O=C(O)CCCSc1ccccc1 | > 100 µM |  |  |  |  |  |  |  |  |  |  |  |  |  |
| Cc1c2oc3c(C)ccc(C(=O)NC4C(=O)NC(C(C)C)C(=O)N5CCCC5C(=O)N(C)CC(=O)N(C)C(C(C)O)C(=O)OC4C)c3nc-2c(C(=O)NC2C(=O)NC(C(C)C)C(=O)N3CCCC3C(=O)N(C)CC(=O)N(C)C(C(C)O)C(=O)OC2C)c(N)c1=O (centres undefined) (I: TVP[Sar][NMeT] / II: TVP[Sar][NMeT]; ester I:1-I:C, II:1-II:C; linker I:N-II:N via Actinocin(9to1); configuration not given here) | 16.9 µM and > 1 µM |  |  |  |  |  |  |  |  |  |  |  |  |  |
| NC(=O)CCC(Nc1c2ccccc2nc2ccccc12)C(=O)O (centres undefined) |  |  |  |  | > 100 µM | > 100 µM | > 100 µM |  | > 100 µM |  |  |  |  |  |
| COc1ccc2c3c([nH]c2c1[N+](=O)[O-])C(C)N(Cc1ccc([N+](=O)[O-])cc1)CC3 (centres undefined) |  | > 100 µM |  |  |  |  | 45 µM |  | 59.8 µM |  |  |  |  |  |
| C=C1C(=O)OC2C1CCC(C)C1C=CC(=O)C12C (centres undefined) | 3.88 µM | 23.3 µM | 20.7 µM |  | 14.4 µM |  | 14.6 µM | 13.4 µM | 3.35 µM |  |  |  |  |  |
| C=C1C(C2(C)C(OC(C)=O)CC(=O)OC(C)(COC(C)=O)C2CC(=O)OC)C(OC=O)C(OC(=O)C(O)C(C)CC)C2(C)C(c3ccoc3)CC(=O)C12O (centres undefined) | > 100 µM |  |  |  |  |  |  |  |  |  |  |  |  |  |
| CC(=C/C=C/C=C(C)\C=C\C=C(\C)C(=O)O)/C=C/C=C(/C)C(=O)O | > 100 µM |  |  |  |  |  |  |  |  |  |  |  |  |  |
| O=C(Nc1ccc(Cl)cc1Cl)C1C(=O)C(=O)N(c2ccc(Cl)cc2Cl)C1=O (centres undefined) |  | > 100 µM | > 100 µM | > 100 µM | > 100 µM |  | > 100 µM |  | > 100 µM |  |  |  |  |  |
| C#CCOCn1cnc2c(Sc3c([N+](=O)[O-])ncn3C)ncnc21 |  |  |  | > 100 µM | > 100 µM | > 100 µM | > 100 µM | > 100 µM | > 100 µM |  |  |  |  |  |
| CCOC(=O)/C(=C\c1ccc(N(CCC#N)CCC#N)cc1)NC(=O)c1cc([N+](=O)[O-])ccc1Cl |  | > 100 µM | > 100 µM | > 100 µM | > 100 µM | > 100 µM | > 100 µM |  | > 100 µM |  |  |  |  |  |
| CC1=C[C@]2(O)C(=O)[C@H](C)C[C@H]3[C@@H](CC[C@@](C)(O)/C=C\2C1=O)C3(C)C |  | 82.5 µM | 98.9 µM | > 53.9 µM | 33.4 µM | > 74.3 µM | 19.5 µM | 32.8 µM | 37.9 µM |  |  |  |  |  |
| Cn1nc(-c2ccccc2)c(C(=O)/C=C/c2ccc(Cl)cc2)c(N2CCCCC2)c1=O |  |  | 4.94 µM | 4.37 µM | 5.07 µM | 9.79 µM | 6.46 µM | 3.91 µM | 3.33 µM |  |  |  |  |  |
| CC(=O)c1cccc(C)c1C(=O)O |  | > 100 µM | > 100 µM | > 100 µM | > 100 µM |  | > 100 µM |  | > 100 µM |  |  |  |  |  |
| CCOc1ccc(N=Cc2ccc3cc(C)ccc3n2)cc1 |  | > 100 µM | > 100 µM | > 100 µM | > 100 µM | > 100 µM | > 100 µM | > 100 µM | > 100 µM |  |  |  |  |  |
| O=C1C=CC(=O)C12CCc1ccccc12 |  | > 100 µM | 97.4 µM | > 100 µM | > 100 µM | > 100 µM | > 100 µM | > 100 µM | > 100 µM |  |  |  |  |  |
| CC(C)(C)CC(C)(C)c1cc2c(O)c(c1)Cc1cc(C(C)(C)CC(C)(C)C)cc(c1O)Cc1cc(C(C)(C)CC(C)(C)C)cc(c1O)Cc1cc(C(C)(C)CC(C)(C)C)cc(c1O)Cc1cc(C(C)(C)CC(C)(C)C)cc(c1O)C2 |  | > 100 µM |  | > 100 µM | > 100 µM |  | > 100 µM | > 100 µM | > 100 µM |  |  |  |  |  |
| O=C(CCc1nnc2s/c(=C\c3ccc(Cl)c(Cl)c3)c(=O)n12)Nc1ccc(Cl)c(Cl)c1 |  |  | > 100 µM | > 100 µM | > 100 µM |  | > 100 µM | > 100 µM | > 100 µM |  |  |  |  |  |

| SMILES | TGI [1] | TGI [2] | TGI [3] | TGI [4] | TGI [5] | TGI [6] | TGI [7] | TGI [8] | TGI [9] | GI50 [7] | GI50 [8] | GI50 [9] | GI50 [3] | GI50 [5] |
| --- | --- | --- | --- | --- | --- | --- | --- | --- | --- | --- | --- | --- | --- | --- |
| CC(C)[O-].CC(C)[O-].O=C1C=C([O-])C(=O)c2ccccc21.O=C1C=C([O-])C(=O)c2ccccc21.[Ti+4] |  |  | > 100 µM |  | > 100 µM |  | > 100 µM | > 100 µM | > 100 µM | 44.1 µM | > 100 µM | 80.8 µM | > 86.7 µM | 4.42 µM |
| O=C(O)NC(c1ccccc1)C(NC(=O)c1ccccc1)c1ccccc1 (centres undefined) |  | > 100 µM | > 100 µM | > 100 µM | > 100 µM |  | > 100 µM | > 100 µM |  |  |  |  |  |  |
| CC1=C(C(=O)Nc2cc(=O)n(C)c(=O)n2C)C(c2cccc([N+](=O)[O-])c2)C(C(=O)Nc2cc(=O)n(C)c(=O)n2C)=C(C)N1 |  | > 100 µM |  | > 100 µM | > 100 µM |  | > 100 µM |  | > 100 µM |  |  |  |  |  |
| CCN(CC)CCCNC(=O)C1COc2cc(-c3cc(=O)c4ccccc4o3)ccc2O1 (centres undefined) |  | > 100 µM | > 100 µM | 50.9 µM | 76.4 µM | > 100 µM | > 100 µM |  | > 100 µM |  |  |  |  |  |
| C[C@]12CCC(=O)C(O)=C1CC[C@@H]1C2CC[C@]2(C)NC(=O)CCC12 (some centres undefined) |  | > 100 µM | > 100 µM | > 100 µM | > 100 µM | > 100 µM | > 100 µM | > 100 µM | > 100 µM |  |  |  |  |  |
| CNC/C(Cl)=N/S(=O)(=O)c1ccc(C)cc1 | 29.5 µM |  |  |  |  |  |  |  |  |  |  |  |  |  |
| COc1ccc(-c2cc(=O)c3ccccc3o2)cc1N |  | > 100 µM | > 100 µM | > 100 µM | > 100 µM | > 100 µM | > 100 µM | 91.1 µM | > 100 µM |  |  |  |  |  |
| O=C1c2ccccc2-c2oc(=O)c3ccccc3c21 | > 100 µM |  |  |  |  |  |  |  |  |  |  |  |  |  |
| CC(=O)OC1CCn2nnc(CO)c21 (centres undefined) |  | > 100 µM | > 100 µM | > 100 µM | > 100 µM |  | > 100 µM | > 100 µM | > 100 µM |  |  |  |  |  |
| O=C(c1ccccc1)c1c(-c2ccccc2)sc2nc3ccccc3nc12 |  | > 100 µM |  | > 100 µM | > 100 µM |  | > 100 µM | > 100 µM |  |  |  |  |  |  |
| Cc1cccc(C)c1CO |  | > 100 µM |  | > 100 µM | > 100 µM | > 100 µM | > 100 µM | > 100 µM | > 100 µM |  |  |  |  |  |
| CCOC(=O)Cc1ccc2c(c1O)C(=O)c1c(ccc(CC(=O)OCC)c1O)C2=O |  | > 100 µM | > 100 µM | > 100 µM | > 100 µM |  | > 100 µM | > 100 µM | > 100 µM |  |  |  |  |  |
| O=c1ccs[nH]1 | 60.2 µM |  |  |  |  |  |  |  |  |  |  |  |  |  |
| O=C(O)Cc1cc(=O)[nH]c2c1/C(=N/O)CCC2 |  |  | > 100 µM |  |  |  |  | > 100 µM | > 100 µM |  |  |  |  |  |
| NC[C@H]1Nc2ccccc2[C@@H](O)C1O (some centres undefined) | > 100 µM |  |  |  |  |  |  |  |  |  |  |  |  |  |
| COc1ccc(C(=O)C(C(=O)CC(=O)Nc2cccc(C(F)(F)F)c2)c2ccc(OC)cc2)cc1 (centres undefined) |  | > 100 µM |  | > 100 µM | > 100 µM | > 100 µM | > 100 µM | > 100 µM | > 100 µM |  |  |  |  |  |
| c1ccc2c(NCCCCCCNc3c4ccccc4nc4ccccc34)c3ccccc3nc2c1 | 1.62 µM |  | 15.2 µM | 2 µM | 2.48 µM |  | 3.05 µM | 2.72 µM | 2.42 µM |  |  |  |  |  |
| CN1CC(=O)N(C)c2ncn(Cc3ccccc3)c2C1=O |  | > 100 µM | > 100 µM | > 100 µM | > 100 µM | > 100 µM |  | 96.4 µM | > 100 µM |  |  |  |  |  |
| COC(=O)C1=C(O)c2cc(-c3ccccc3)c(-c3ccccc3)c(C#N)c2NC(=O)C1 |  | > 100 µM |  | > 100 µM | > 100 µM | 41 µM | > 100 µM | > 100 µM | > 100 µM |  |  |  |  |  |
